Earlier results in paper PMC5548886 (Cancer Medicine, 2017).

What was measured:
[1] = system: pERK; design: method as in PMID 20823850; details: at the recommended phase II dose; cited from earlier work
[2] = system: advanced or metastatic melanoma; details: phase II trial; cited from earlier work

Row | Compound | pERK suppression [1] | response rate [2]
1 | CCCS(=O)(=O)Nc1ccc(F)c(C(=O)c2c[nH]c3ncc(-c4ccc(Cl)cc4)cc23)c1F [vemurafenib] | over 80% | –
2 | CNC(=O)c1ccccc1Sc1ccc2c(/C=C/c3ccccn3)n[nH]c2c1 [axitinib] | – | ~ 19%
